Source: PubChem BioAssay (NCI)
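Briefly, cells in 96-well plates were exposed to five compound concentrations for 48 h, and endpoints were estimated by linear interpolation. GI50 is the concentration that inhibits growth by half. TGI is the concentration that stops growth completely.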

Tests used:
Assay in all cases: NCI-60 cell line screen, 48 h
786-0 renal = tested on: 786-0 renal
A498 renal = tested on: A498 renal
A549 NSCLC = tested on: A549 NSCLC
ACHN renal = tested on: ACHN renal
BT-549 breast = tested on: BT-549 breast
CAKI-1 renal = tested on: CAKI-1 renal
CCRF-CEM leukemia = tested on: CCRF-CEM leukemia
COLO 205 colon = tested on: COLO 205 colon
DU-145 prostate = tested on: DU-145 prostate
EKVX NSCLC = tested on: EKVX NSCLC
HCC-2998 colon = tested on: HCC-2998 colon
HCT-116 colon = tested on: HCT-116 colon
HCT-15 colon = tested on: HCT-15 colon
HL-60(TB) leukemia = tested on: HL-60(TB) leukemia
HOP-62 NSCLC = tested on: HOP-62 NSCLC
HOP-92 NSCLC = tested on: HOP-92 NSCLC
HS 578T breast = tested on: HS 578T breast
HT29 colon = tested on: HT29 colon
IGROV1 ovarian = tested on: IGROV1 ovarian
K-562 leukemia = tested on: K-562 leukemia
KM12 colon = tested on: KM12 colon
LOX IMVI melanoma = tested on: LOX IMVI melanoma
M14 melanoma = tested on: M14 melanoma
MALME-3M melanoma = tested on: MALME-3M melanoma
MCF7 breast = tested on: MCF7 breast
MDA-MB-231 breast = tested on: MDA-MB-231 breast
MDA-MB-435 = tested on: MDA-MB-435
MOLT-4 leukemia = tested on: MOLT-4 leukemia

Structure (SMILES): CN1CCN(Cc2ccc(NC(=O)c3cncc(C#Cc4cnn5cccnc45)c3)cc2C(F)(F)F)CC1
- GI50 (786-0 renal): 1830 nM
- TGI (786-0 renal): 3300 nM
- GI50 (A498 renal): 8190 nM
- TGI (A498 renal): 19800 nM
- GI50 (A549 NSCLC): 2850 nM
- TGI (A549 NSCLC): 9010 nM
- GI50 (ACHN renal): 2290 nM
- TGI (ACHN renal): 6840 nM
- GI50 (BT-549 breast): 4630 nM
- TGI (BT-549 breast): 14500 nM
- GI50 (CAKI-1 renal): 1800 nM
- TGI (CAKI-1 renal): 7530 nM
- GI50 (CCRF-CEM leukemia): 2280 nM
- TGI (CCRF-CEM leukemia): 6470 nM
- GI50 (COLO 205 colon): 1400 nM
- TGI (COLO 205 colon): 3310 nM
- GI50 (DU-145 prostate): 2940 nM
- TGI (DU-145 prostate): 9250 nM
- GI50 (EKVX NSCLC): 5010 nM
- TGI (EKVX NSCLC): 16700 nM
- GI50 (HCC-2998 colon): 2400 nM
- TGI (HCC-2998 colon): 10800 nM
- GI50 (HCT-116 colon): 941 nM
- TGI (HCT-116 colon): 2620 nM
- GI50 (HCT-15 colon): 2800 nM
- TGI (HCT-15 colon): 10200 nM
- GI50 (HL-60(TB) leukemia): 598 nM
- TGI (HL-60(TB) leukemia): 2670 nM
- GI50 (HOP-62 NSCLC): 2750 nM
- TGI (HOP-62 NSCLC): 9350 nM
- GI50 (HOP-92 NSCLC): 376 nM
- TGI (HOP-92 NSCLC): 4000 nM
- GI50 (HS 578T breast): 2650 nM
- TGI (HS 578T breast): 10300 nM
- GI50 (HT29 colon): 1360 nM
- TGI (HT29 colon): 5580 nM
- GI50 (IGROV1 ovarian): 2120 nM
- TGI (IGROV1 ovarian): 7630 nM
- TGI (K-562 leukemia): 1320 nM
- GI50 (KM12 colon): 25.5 nM
- TGI (KM12 colon): 4380 nM
- GI50 (LOX IMVI melanoma): 1230 nM
- TGI (LOX IMVI melanoma): 3120 nM
- GI50 (M14 melanoma): 1060 nM
- TGI (M14 melanoma): 3340 nM
- GI50 (MALME-3M melanoma): 322 nM
- TGI (MALME-3M melanoma): 1830 nM
- GI50 (MCF7 breast): 1290 nM
- TGI (MCF7 breast): 4390 nM
- GI50 (MDA-MB-231 breast): 1390 nM
- TGI (MDA-MB-231 breast): 7580 nM
- GI50 (MDA-MB-435): 2000 nM
- TGI (MDA-MB-435): 8710 nM
- GI50 (MOLT-4 leukemia): 2130 nM
- TGI (MOLT-4 leukemia): 7020 nM
